Data on 25 compounds can be found in ChEMBL document CHEMBL3763108, “Application of PEG-400 as a green biodegradable polymeric medium for the catalyst-free synthesis of spiro-dihydropyridines and their use as acetyl and butyrylcholinesterase inhibitors” (Bioorg Med Chem, 2016).

pIC50: −log10 of the molar value.

In one assay the target is Acetylcholinesterase (Homo sapiens, UniProt P22303). Kind of assay: Inhibition of AChE (unknown origin) using acetylthiocholine as substrate assessed as reduction of DTNB to TNB preincubated for 20 mins followed by addition of substrate by Ellman's kinetic method. On the technique in general: In Ellman's method for cholinesterases, released thiocholine reacts with DTNB.
Acetylcholinesterase, sequence (P22303 whole entry): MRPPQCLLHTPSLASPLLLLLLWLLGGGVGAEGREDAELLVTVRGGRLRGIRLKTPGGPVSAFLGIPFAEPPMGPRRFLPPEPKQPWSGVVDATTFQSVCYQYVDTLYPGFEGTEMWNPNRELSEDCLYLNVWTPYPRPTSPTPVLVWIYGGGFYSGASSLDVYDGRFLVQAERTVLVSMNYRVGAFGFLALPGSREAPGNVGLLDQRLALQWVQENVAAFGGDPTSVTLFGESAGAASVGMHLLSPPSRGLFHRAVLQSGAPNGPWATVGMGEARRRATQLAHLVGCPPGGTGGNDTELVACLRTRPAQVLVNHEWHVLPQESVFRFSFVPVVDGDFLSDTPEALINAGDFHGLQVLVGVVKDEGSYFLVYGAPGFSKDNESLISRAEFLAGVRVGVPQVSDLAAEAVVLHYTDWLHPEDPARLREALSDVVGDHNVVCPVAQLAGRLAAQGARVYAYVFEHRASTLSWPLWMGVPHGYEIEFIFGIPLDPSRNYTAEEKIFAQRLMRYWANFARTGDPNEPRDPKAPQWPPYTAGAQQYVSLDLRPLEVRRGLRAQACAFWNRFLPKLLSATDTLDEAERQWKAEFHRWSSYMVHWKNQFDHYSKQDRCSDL

A further assay has as its target Cholinesterase (Homo sapiens, UniProt P06276). The assay is described as follows: Inhibition of BChE (unknown origin) using acetylthiocholine as substrate assessed as reduction of DTNB to TNB preincubated for 20 mins followed by addition of substrate by Ellman's kinetic method.
In assay [1] the target is T1, Cholinesterases; ACHE & BCHE (Homo sapiens) (UniProt P06276+P22303). Kind of assay: Selectivity ratio of IC50 for BChE (unknown origin) to IC50 for AChE (unknown origin) by Ellman's kinetic method.
T1 sequence (P06276 whole entry, looked up): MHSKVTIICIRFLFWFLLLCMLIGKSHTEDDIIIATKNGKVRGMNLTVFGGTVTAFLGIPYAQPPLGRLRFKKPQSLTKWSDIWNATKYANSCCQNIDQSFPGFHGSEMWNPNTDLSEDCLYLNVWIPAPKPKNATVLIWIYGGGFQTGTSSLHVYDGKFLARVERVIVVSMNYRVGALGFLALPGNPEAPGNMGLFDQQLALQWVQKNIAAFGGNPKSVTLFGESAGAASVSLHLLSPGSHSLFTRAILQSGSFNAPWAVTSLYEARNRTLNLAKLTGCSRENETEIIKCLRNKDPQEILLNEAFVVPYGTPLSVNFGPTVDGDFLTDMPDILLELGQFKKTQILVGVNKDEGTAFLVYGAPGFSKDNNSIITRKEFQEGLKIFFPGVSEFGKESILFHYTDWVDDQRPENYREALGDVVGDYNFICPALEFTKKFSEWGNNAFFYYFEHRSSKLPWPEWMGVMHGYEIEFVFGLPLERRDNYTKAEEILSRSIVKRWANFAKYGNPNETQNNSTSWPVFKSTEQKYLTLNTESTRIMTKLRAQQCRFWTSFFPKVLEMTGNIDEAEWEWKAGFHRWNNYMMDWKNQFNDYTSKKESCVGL
T1 sequence (P22303 whole entry, looked up): as the sequence (P22303 whole entry) above
The target in assay [2] is T1, Cholinesterases; ACHE & BCHE (Homo sapiens). The assay is described as follows: Selectivity ratio of IC50 for AChE (unknown origin) to IC50 for BChE (unknown origin) by Ellman's kinetic method.

Cholinesterase, sequence (P06276 whole entry): as the sequence (P06276 whole entry, looked up) above

Consider `N#CC1=C(N)N2CCCNC2=C([N+](=O)[O-])C12C(=O)c1ccc(Br)c3c(Br)ccc2c13` (stereo not drawn), for which the pIC50 at Acetylcholinesterase is 5.17; on Cholinesterase, 4.61. The Ratio IC50 in assay [1] came out at 3.68; in assay [2], 0.272.

For the compound `CC1(C)CNC2=C([N+](=O)[O-])C3(C(=O)Nc4ccc([N+](=O)[O-])cc43)C(C#N)=C(N)N2C1` (stereo not drawn), the results for the negative-log IC50 (pIC50) on Acetylcholinesterase and on Cholinesterase were 5.81 and 4.93, respectively. In addition, the Ratio IC50 was 7.71 in assay [1] and 0.13 in assay [2].

Turning to `CC1(C)CNC2=C([N+](=O)[O-])C3(C(=O)c4ccc(Br)c5c(Br)ccc3c45)C(C#N)=C(N)N2C1` (stereo not drawn), the results for the pIC50 at Acetylcholinesterase and on Cholinesterase were 5.22 and 4.62, respectively. Further, the Ratio IC50 in assay [1] turned out to be 3.98; in assay [2], 0.251.

Take `N#CC1=C(N)N2CCCNC2=C([N+](=O)[O-])C12C(=O)Nc1ccccc12` (stereo not drawn): the negative logarithm of the IC50 (pIC50) at Acetylcholinesterase was 5.99; on Cholinesterase it was 5.05. Also, the Ratio IC50 in assay [1] turned out to be 8.76; in assay [2] it was 0.114.

Consider `N#CC1=C(N)N2CCNC2=C([N+](=O)[O-])C12C(=O)c1cccc3cccc2c13` (stereo not drawn), for which the negative logarithm of the IC50 (pIC50) is 5.15 on Acetylcholinesterase and 4.62 on Cholinesterase. Further, the Ratio IC50 in assay [1] worked out at 3.36; in assay [2], 0.298.

Consider `Cc1ccc2c(c1)C1(C(=O)N2)C(C#N)=C(N)N(Cc2ccccc2)C(NCc2ccccc2)=C1[N+](=O)[O-]` (stereo not drawn), for which the pIC50 at Acetylcholinesterase was 5.43; on Cholinesterase it was 4.87. In addition, the Ratio IC50 is 3.64 in assay [1] and 0.275 in assay [2].

As to `COc1ccc2c3c1O[C@H]1CC(O)CC[C@@]31CCN(C)C2` (stereo partly drawn), the Ratio IC50 in assay [1] was 5.12; in assay [2] it was 0.196.

Regarding `CC1(C)CNC2=C([N+](=O)[O-])C3(C(=O)Nc4ccccc43)C(C#N)=C(N)N2C1` (stereo not drawn), the pIC50 is 5.90 at Acetylcholinesterase and 4.98 at Cholinesterase. In addition, the figures for the Ratio IC50 in assay [1] and in assay [2] were 8.34 and 0.12, respectively.

`N#CC1=C(N)N(Cc2ccccc2)C(NCc2ccccc2)=C([N+](=O)[O-])C12C(=O)c1ccc(Br)c3c(Br)ccc2c13` (stereo not drawn): the values for the negative-log IC50 (pIC50) on Acetylcholinesterase and at Cholinesterase were 5.20 and 4.58, respectively. The Ratio IC50 in assay [1] was determined as 4.26; in assay [2] it was 0.235.

As to `CC1(C)CNC2=C([N+](=O)[O-])C3(C(=O)c4cccc5cccc3c45)C(C#N)=C(N)N2C1` (stereo not drawn), the negative logarithm of the IC50 (pIC50) at Acetylcholinesterase was 5.11; at Cholinesterase it was 4.59. Besides, the Ratio IC50 in assay [1] was 3.3; in assay [2], 0.303.

Consider `N#CC1=C(N)N(Cc2ccccc2)C(NCc2ccccc2)=C([N+](=O)[O-])C12C(=O)Nc1ccc([N+](=O)[O-])cc12` (stereo not drawn), for which the pIC50 was 5.47 on Acetylcholinesterase and 4.83 on Cholinesterase. Also, the Ratio IC50 in assay [1] was found to be 4.44; in assay [2] it was 0.225.

Turning to `Cc1ccc2c(c1)C1(C(=O)N2)C(C#N)=C(N)N2CC(C)(C)CNC2=C1[N+](=O)[O-]` (stereo not drawn), the pIC50 is 5.86 at Acetylcholinesterase and 4.83 on Cholinesterase. In addition, the figures for the Ratio IC50 in assay [1] and in assay [2] were 10.6 and 0.095, respectively.

`CC1(C)CNC2=C([N+](=O)[O-])C3(C(=O)Nc4ccc(F)cc43)C(C#N)=C(N)N2C1` (stereo not drawn): the pIC50 at Acetylcholinesterase is 5.97; at Cholinesterase it was 4.80. In addition, the Ratio IC50 is 14.9 in assay [1] and 0.067 in assay [2].

Regarding `N#CC1=C(N)N2CCNC2=C([N+](=O)[O-])C12C(=O)c1ccc(Br)c3c(Br)ccc2c13` (stereo not drawn), the negative logarithm of the IC50 (pIC50) was 5.20 at Acetylcholinesterase and 4.58 at Cholinesterase. Also, the Ratio IC50 was found to be 4.09 in assay [1] and 0.245 in assay [2].

Regarding `N#CC1=C(N)N2CCCNC2=C([N+](=O)[O-])C12C(=O)c1cccc3cccc2c13` (stereo not drawn), the pIC50 is 5.18 at Acetylcholinesterase and 4.58 on Cholinesterase. Further, the results for the Ratio IC50 in assay [1] and in assay [2] were 3.96 and 0.252, respectively.

Take `N#CC1=C(N)N2CCCNC2=C([N+](=O)[O-])C12C(=O)Nc1ccc([N+](=O)[O-])cc12` (stereo not drawn): the negative logarithm of the IC50 (pIC50) is 5.94 on Acetylcholinesterase and 4.91 on Cholinesterase. In addition, the Ratio IC50 in assay [1] was found to be 10.8; in assay [2], 0.092.

Regarding `N#CC1=C(N)N2CCCNC2=C([N+](=O)[O-])C12C(=O)Nc1ccc(F)cc12` (stereo not drawn), the negative logarithm of the IC50 (pIC50) at Acetylcholinesterase is 6.38; at Cholinesterase it was 4.83. Moreover, the Ratio IC50 turned out to be 35 in assay [1] and 0.029 in assay [2].

Consider `N#CC1=C(N)N(Cc2ccccc2)C(NCc2ccccc2)=C([N+](=O)[O-])C12C(=O)Nc1ccccc12` (stereo not drawn), for which the negative logarithm of the IC50 (pIC50) is 5.40 at Acetylcholinesterase and 4.82 on Cholinesterase. Further, the Ratio IC50 in assay [1] came out at 3.86; in assay [2] it was 0.259.

Take `Cc1ccc2c(c1)C1(C(=O)N2)C(C#N)=C(N)N2CCCNC2=C1[N+](=O)[O-]` (stereo not drawn): the pIC50 was 6.03 at Acetylcholinesterase and 4.91 on Cholinesterase. The Ratio IC50 in assay [1] was 13.1; in assay [2], 0.076.

For `N#CC1=C(N)N2CCNC2=C([N+](=O)[O-])C12C(=O)Nc1ccc([N+](=O)[O-])cc12` (stereo not drawn), the values for the negative logarithm of the IC50 (pIC50) at Acetylcholinesterase and on Cholinesterase were 5.49 and 4.85, respectively. The Ratio IC50 in assay [1] came out at 4.34; in assay [2], 0.23.

With `N#CC1=C(N)N(Cc2ccccc2)C(NCc2ccccc2)=C([N+](=O)[O-])C12C(=O)Nc1ccc(F)cc12` (stereo not drawn), the negative logarithm of the IC50 (pIC50) at Acetylcholinesterase was 5.45; at Cholinesterase it was 4.82. Moreover, the Ratio IC50 in assay [1] came out at 4.26; in assay [2] it was 0.235.

Regarding `N#CC1=C(N)N2CCNC2=C([N+](=O)[O-])C12C(=O)Nc1ccccc12` (stereo not drawn), the negative-log IC50 (pIC50) on Acetylcholinesterase was 5.31; at Cholinesterase it was 4.87. Moreover, the values for the Ratio IC50 in assay [1] and in assay [2] were 2.77 and 0.36, respectively.

Regarding `Cc1ccc2c(c1)C1(C(=O)N2)C(C#N)=C(N)N2CCNC2=C1[N+](=O)[O-]` (stereo not drawn), the pIC50 on Acetylcholinesterase is 5.41; on Cholinesterase it was 4.79. Also, the Ratio IC50 in assay [1] stood at 4.21; in assay [2] it was 0.238.

In the case of `N#CC1=C(N)N2CCNC2=C([N+](=O)[O-])C12C(=O)Nc1ccc(F)cc12` (stereo not drawn), the negative-log IC50 (pIC50) on Acetylcholinesterase is 5.48; on Cholinesterase it was 4.77. Moreover, the Ratio IC50 was 5.12 in assay [1] and 0.195 in assay [2].

Regarding `N#CC1=C(N)N(Cc2ccccc2)C(NCc2ccccc2)=C([N+](=O)[O-])C12C(=O)c1cccc3cccc2c13` (stereo not drawn), the figures for the pIC50 on Acetylcholinesterase and at Cholinesterase were 5.22 and 4.62, respectively. Moreover, the Ratio IC50 in assay [1] amounted to 4; in assay [2] it was 0.25.

Usually pIC50 stands for the negative decadic logarithm of the IC50, by convention in mol/L.
